From PMC12313019, “Fibrotic lung ECM upregulates SDC4/integrin-αvβ1 interaction and the interfering peptide SDC4_87-131 and its derivative peptides alleviate pulmonary fibrosis” (Regenerative Biomaterials, 2025)

Key:
[1] = tested on: SDC4/integrin-αv; assay: Duolink-PLA, SDC4/integrin-αv extracellular interaction in fibroblast; type: cell-based, mouse; settings: SDC4_87-131 100 nM; with Anti-SDC4(93-121), n=5
Method: Decellularized lung ECM (dECM) was prepared as described in previous study. 2 × 10^5 cells/mL NIH3T3 cells (mouse […], purchased from the Stem Cell Bank of the Chinese Academy of Sciences, Shanghai, China) were seeded on the dECM slices attached to the bottom of the culture dish and cultured in DMEM medium containing 0.5% fetal bovine serum (Gibco, Waltham, MA, USA) at 37°C and 5% CO2.
Cells or tissue slices were attached to slides, fixed and permeabilized and blocked with Duolink^TM (Merck, MO, USA) blocking buffer. Antibodies against the extracellular domain of SDC4 (5G9, mouse IgG, SCBT #sc-12766), integrin-αv (rabbit IgG, CST #4711) and integrin-β1 (rabbit IgG, CST #34971) were diluted and added to the samples and incubated overnight at 4°C. After washing, PLUS and MINUS (proximity ligation assay, PLA) probes were added to the samples and incubated at 37°C for 1 h. After washing, the samples were sequentially incubated with PLUS and MINUS (PLA) probes, ligation buffer and amplification buffer containing polymerase. Finally, the samples were mounted with in situ mounting medium containing DAPI. Images were acquired using a Leica SP5 confocal microscope (Leica Biosystems, Germany) and quantitative analysis was performed using ImageJ software.

[2] = tested on: integrin-β1; assay: BLM-induced PF in mice: flow cytometry of integrin-β1 activation in lung tissue; type: in vivo, mouse
Method: After the mice were anesthetized (1% sodium pentobarbital 50 mg/kg was injected intraperitoneally), 150 μL of bleomycin (BLM, 5 mg/mL, BIO-000001) was inhaled into the lungs of the mice by tracheal inhalation instillation. One day later, the mice were randomly divided into model and drug treatment groups, and the mice in the control group were only subjected to saline inhalation.
The single cell suspension of mouse lung tissue was obtained by grinding. After the remaining red blood cells were lysed with ACK Lysis Buffer (TBD, NH4CL2009), 1×10^6 cells/100 μL of cells were added with Fixable Viability Stain 780 (BD, #565388). After incubation at room temperature in the dark for 10-15 min, the suspension was washed twice with PBS containing 1%-2% FBS. The FCR antibody TruStain FcX™ PLUS (BD, #156603) was added to the cell suspension at a ratio of 0.25 μL:100 μL and blocked on ice for 10 min. Then, the antibody was incubated at an appropriate concentration and time according to the manufacturer's instructions. Antibodies include CD45 (Biolegend, #157619), CD140a (Thermo Fisher, #25-1401-82), SDC-4 (Sino Biological, #50726-R112-P), SP-C (Bioss, #bs-10067R-FITC) and Integrin-β1 (9Eg7, BD, 553715), and AF647 anti-Rat (CST, #4418S) was used as the secondary antibody. After incubation, cells were washed and resuspended, and detected using LSRFortessaX-20 (BD).

## Ac-NHIPERAGSGSQVPTEPKKLEENEVIPKRISPVEESEDVSNKVSM-NH2 [SDC4_87-131]
[1]
  integrin-αv/SDC4 interaction induced by dECM-PF: significantly reduce
[2]
  integrin-β1 activation in nonimmune cells (CD45^-): abolished
[2]; CD45^- cells
  integrin-β1 activation effect vs C8 and Anti-SDC4(93-121): equivalent to the effects of C8 and Anti-SDC4(93-121)
